Source: US11377442B2, “Small molecule agonists and antagonists of NR2F6 activity” (ZANDER THERAPEUTICS, INC., priority 2016, dated 2022)
Where two headings read alike, the source gives them in different places.

Experiments:
Format in all cases: cell-based
Renilla = Renilla signal in NR2F6 agonist screening, cmpd/DMSO; settings: Renilla, F4
NR2F6 = molecular target: T1, NR2F6 (Homo sapiens, UniProt P10588); assay: NR2F6 agonist screening, Firefly signal cmpd/DMSO
T1 construct: expressed in transfected cells; also transient transfection
T1 sequence (P10588 1-404): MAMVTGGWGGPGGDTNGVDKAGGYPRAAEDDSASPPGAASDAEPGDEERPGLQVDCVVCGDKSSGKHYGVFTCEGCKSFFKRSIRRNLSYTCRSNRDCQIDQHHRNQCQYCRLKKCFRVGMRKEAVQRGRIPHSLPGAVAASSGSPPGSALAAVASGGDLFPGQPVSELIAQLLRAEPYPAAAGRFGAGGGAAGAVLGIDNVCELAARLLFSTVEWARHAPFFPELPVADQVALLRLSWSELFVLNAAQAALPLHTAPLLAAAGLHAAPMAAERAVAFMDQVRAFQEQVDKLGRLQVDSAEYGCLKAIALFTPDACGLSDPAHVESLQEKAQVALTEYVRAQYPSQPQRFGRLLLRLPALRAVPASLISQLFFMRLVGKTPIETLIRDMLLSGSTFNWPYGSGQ

NR2F6 LBD = molecular target: T2, NR2F6 LBD (Homo sapiens, UniProt P10588); assay: NR2F6 LBD transient transfection; settings: LBD
T2 construct: expressed in transfected cells
T2 sequence (P10588 165-393 limits assumed): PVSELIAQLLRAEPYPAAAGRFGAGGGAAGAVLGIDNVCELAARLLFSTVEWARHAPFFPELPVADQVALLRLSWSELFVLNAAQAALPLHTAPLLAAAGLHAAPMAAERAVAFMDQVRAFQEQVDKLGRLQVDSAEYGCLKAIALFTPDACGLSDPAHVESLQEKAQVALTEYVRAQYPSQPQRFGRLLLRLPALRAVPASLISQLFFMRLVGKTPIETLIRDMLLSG
In short: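 LBD-transfected cells treated at 40, 10, 2 and 0.5 μM (4 replicates); cytotoxicity measured in parallel, normalized to DMSO (0%) and zero signal (100%). Higher concentrations excluded where signal loss reflected toxicity.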

HEK293 pGL4 = assay: Firefly_pGL signal, cmpd/DMSO (pGL4 control cells); settings: Homo sapiens
[1] = read-out: Renilla, F4, cmpd/DMSO (mean)
[2] = 1% FBS, read-out: Renilla, F4, 1% FBS, cmpd/DMSO (mean)
[3] = 10% FBS, read-out: Renilla, F4, 10% FBS, cmpd/DMSO (mean)

Firefly F4, cmpd/DMSO (mean) (NR2F6; 0.5 uM): 1.8 | Firefly F4, cmpd/DMSO (mean) (NR2F6; 2 uM): 2.5 | Firefly F4, cmpd/DMSO (mean) (NR2F6; 10 uM): 7.1 | Firefly F4, cmpd/DMSO (mean) (NR2F6; 40 uM): 0.7 | F4, Firefly/Renilla for S/B(F4) > 3 (NR2F6; 1% FBS, 10 uM): 2.7 | Firefly, F4/pGL4 for S/B(F4) > 3 (NR2F6; 1% FBS, 10 uM): 1.6 | F4, Firefly/Renilla for S/B(F4) > 3 (NR2F6; 10% FBS, 10 uM): 4.0 | Firefly, F4/pGL4 for S/B(F4) > 3 (NR2F6; 10% FBS, 10 uM): 2.5 | Firefly, F4, 1% FBS, cmpd/DMSO (mean) (NR2F6; 1% FBS, 0.5 uM): 1.3 | Firefly, F4, 1% FBS, cmpd/DMSO (mean) (NR2F6; 1% FBS, 2 uM): 2.1 | Firefly, F4, 1% FBS, cmpd/DMSO (mean) (NR2F6; 1% FBS, 10 uM): 4.4 | Firefly, F4, 1% FBS, cmpd/DMSO (mean) (NR2F6; 1% FBS, 40 uM): 0.2 | Firefly, F4, 10% FBS, cmpd/DMSO (mean) (NR2F6; 10% FBS, 0.5 uM): 1.1 | Firefly, F4, 10% FBS, cmpd/DMSO (mean) (NR2F6; 10% FBS, 2 uM): 2.0 | Firefly, F4, 10% FBS, cmpd/DMSO (mean) (NR2F6; 10% FBS, 10 uM): 7.5 | Firefly, F4, 10% FBS, cmpd/DMSO (mean) (NR2F6; 10% FBS, 40 uM): 0.8 | Activity, cmpd/DMSO (NR2F6; Table 31): 6.1 | Firefly LBD, cmpd/DMSO (mean) (NR2F6 LBD; 0.5 uM): 1.0 | Firefly LBD, cmpd/DMSO (mean) (NR2F6 LBD; 2 uM): 1.9 | Firefly LBD, cmpd/DMSO (mean) (NR2F6 LBD; 10 uM): 4.9 | Firefly LBD, cmpd/DMSO (mean) (NR2F6 LBD; 40 uM): 0.4
SMILES: O=S1(=O)C[C@H](N2CCCCC2)[C@@H](S(=O)(=O)c2ccc(Cl)cc2)C1 [Compound D123]
fold induction at 0.5 µM (Renilla; [1]): 1.1 | fold induction at 2 µM (Renilla; [1]): 1.4 | fold induction at 10 µM (Renilla; [1]): 1.9 | fold induction at 40 µM (Renilla; [1]): 0.3 | fold induction at 0.5 µM (Renilla; [2]): 1.1 | fold induction at 2 µM (Renilla; [2]): 1.4 | fold induction at 10 µM (Renilla; [2]): 1.6 | fold induction at 40 µM (Renilla; [2]): 0.1 | fold induction at 0.5 µM (Renilla; [3]): 0.9 | fold induction at 2 µM (Renilla; [3]): 1.1 | fold induction at 10 µM (Renilla; [3]): 1.9 | fold induction at 40 µM (Renilla; [3]): 0.2 | fold induction at 0.5 µM (HEK293 pGL4; HEK293, 0.5 uM, pGL4, read-out: Firefly pGL4, cmpd/DMSO (mean)): 1.2 | fold induction at 2 µM (HEK293 pGL4; HEK293, 2 uM, pGL4, read-out: Firefly pGL4, cmpd/DMSO (mean)): 1.7 | fold induction at 10 µM (HEK293 pGL4; HEK293, 10 uM, pGL4, read-out: Firefly pGL4, cmpd/DMSO (mean)): 3.4 | fold induction at 40 µM (HEK293 pGL4; HEK293, 40 uM, pGL4, read-out: Firefly pGL4, cmpd/DMSO (mean)): 0.6 | fold induction at 0.5 µM (HEK293 pGL4; HEK293, pGL4, 1% FBS, 0.5 uM, read-out: Firefly, pGL4, 1% FBS, cmpd/DMSO (mean)): 1.1 | fold induction at 2 µM (HEK293 pGL4; HEK293, pGL4, 1% FBS, 2 uM, read-out: Firefly, pGL4, 1% FBS, cmpd/DMSO (mean)): 1.8 | fold induction at 10 µM (HEK293 pGL4; HEK293, pGL4, 1% FBS, 10 uM, read-out: Firefly, pGL4, 1% FBS, cmpd/DMSO (mean)): 2.7 | fold induction at 40 µM (HEK293 pGL4; HEK293, pGL4, 1% FBS, 40 uM, read-out: Firefly, pGL4, 1% FBS, cmpd/DMSO (mean)): 0.8 | fold induction at 0.5 µM (HEK293 pGL4; HEK293, pGL4, 10% FBS, 0.5 uM, read-out: Firefly, pGL4, 10% FBS, cmpd/DMSO (mean)): 1.2 | fold induction at 2 µM (HEK293 pGL4; HEK293, pGL4, 10% FBS, 2 uM, read-out: Firefly, pGL4, 10% FBS, cmpd/DMSO (mean)): 1.6 | fold induction at 10 µM (HEK293 pGL4; HEK293, pGL4, 10% FBS, 10 uM, read-out: Firefly, pGL4, 10% FBS, cmpd/DMSO (mean)): 3 | fold induction at 40 µM (HEK293 pGL4; HEK293, pGL4, 10% FBS, 40 uM, read-out: Firefly, pGL4, 10% FBS, cmpd/DMSO (mean)): 0.8
